# Source: article PMC7370100, “In Vitro Assessment of the Genotoxic Hazard of Novel Hydroxamic Acid- and Benzamide-Type Histone Deacetylase Inhibitors (HDACi)” (International Journal of Molecular Sciences, 2020)
# Experiments:
# [1] = parameters: method as in PMID 15897550; conditions: humans; read-out: maximal blood serum concentration (Cmax); cited from earlier work
# V79 cells [2] = assay: Nuclear 53BP1 foci formation; assay type: cell-based, hamster; conditions: 6 to 24 h, V79, in words
# Protocol: The frequency of nuclear foci formed by S139 phosphorylated H2AX (γH2AX foci), which is a surrogate marker of DNA damage, especially DNA double-strand breaks (DSBs), was assayed by immunocytochemistry-based analysis. […] The appearance of nuclear 53BP1 foci, which is another marker of DSBs, was also determined by immunocytochemistry. Cells were fixed with 4% formaldehyde in phosphate-buffered saline (PBS) (MERCK, Darmstadt, Germany) (15 min, RT) followed by incubation with ice-cold methanol (≥20 min, −20 °C). After blocking (1 h, RT, blocking solution: 5% BSA (MERCK, Darmstadt, Germany) in PBS/0.3% Triton X-100 (Sigma, Steinheim, Germany)), incubation with γH2AX antibody and 53BP1 antibody was performed (1:500, overnight, 4 °C). After incubation with the secondary fluorescence-labeled antibody (1:500, 1 h, RT, in the dark), cells were mounted in Vectashield (Vector Laboratories (Burlingame, CA, USA)) containing DAPI. The number of nuclear γH2AX and 53BP1 foci was scored (Olympus BX43 fluorescence microscope). Only nuclei with distinct foci were evaluated and γH2AX pan-stained nuclei were excluded from the foci analyses. Data are shown as the mean ± SEM of three independent experiments with ≥50 nuclei analyzed per experimental condition.
# V79 cells [3] = assay: Phospho-ATM (pATM) foci formation; assay type: cell-based, hamster; conditions: 6 to 24 h, V79, in words
# Source text: Figure 4 Cell cycle-related formation of DNA damage by hydroxamic acid- and benzamide-type HDACi. […] (B) For positive control, ionizing radiation (IR) was used. Shown are representative pictures of γH2AX, 53BP1, and pATM stained cells. […] Data shown are the mean ± SD from three independent experiments (n = 3); *, p ≤ 0.05; **, p ≤ 0.01 as compared to the untreated control, which was set to 1.0 (Student´s t-test).
smiles,measurement,setting,value
"O=C(CCCCCCC(=O)Nc1ccccc1)NO [Vorinostat, vorinostat, reference compound]",Cmax,[1],~1000 nM
same,formation of nuclear 53BP1 foci,V79 cells [2],failed to cause the formation of nuclear 53BP1 foci
same,formation of phospho-ATM (pATM) foci,V79 cells [3],did not cause the formation of phospho-ATM (pATM) foci
